Source: patent US20040214850A1, “1-glyoxylamide indolizines for treating cancer” (Synta Pharmaceuticals Corp., priority 2001, published 2004)

Experiments:
[1] = system: MES-SA/DX5 (multi-drug resistant human uterine sarcoma cell line); test: In vitro activity against multi-drug resistant cell line MES-SA/DX5; format: cell-based; conditions: MES-SA/Dx5, MES-SA/DX-5 MDR cells (Table 2)
Procedure: (§1) The cell lines were maintained in RPMI1640 (GIBCO) supplemented with 10% FCS, 100 units/ml penicillin, 100 ug/ml streptomycin, and 2 mM L-glutamine. The cells were split every third day and diluted to a concentration of 2×10^5 cells/ml one day before experiment. All experiments were performed on exponentially growing cell culture. Cell densities were 2.5×10^4 cells/ml in all experiment.
(§2) A stock solution of Compound (1) and a stock solution of Taxol (positive control) were prepared by dissolving the compound at a concentration of 1 mM in 100% DMSO. Final concentrations were obtained by diluting the stock solution directly into the tissue culture medium. Cells were incubated with varying concentrations of the compounds for 72 hours and the IC50 was determined by MTS (i.e. 3-(4,5,-dimethylthiazol-2-yl)-2,5-diphenyl tetrazolium bromide) assay. IC50 stands for the concentration of compound required to inhibit 50% tumor cell growth.
(§3) In vitro activity was determined in two MDR (Multi Drug Resistant) human cancer cell lines. HL-60/TX1000 was isolated in vitro by subculturing HL-60 in progressively higher concentration of Taxol. HL-60/TX1000 cells over-express mdr-1 mRNA and p-glycoprotein, as determined by western blot and immunofluorescence labeling with antiPGP antibodies. The cell is cross-resistant to Taxol, Vincristine, Adriamycin, Etoposide and Doxorubicin. MES-SA/Dx5 was established in the presence of increasing concentrations of Doxorubicin. […] MES-SA/Dx5 was purchased from ATCC.
(§4) The procedure for culturing the cells and assaying cancer cell growth inhibition were as described in Example 3.
The protocol described in Examples 9-10 was used to assay inhibition by Compounds (2)-(8) on the growth of the multidrug resistant cancer cell line MES-SA/DX5, which is a MDR uterine sarcoma cell line.

[2] = system: HL-60/TX1000 (multi-drug resistant human myeloid leukemia cell line); test: In vitro activity against multi-drug resistant cell line HL-60/TX1000; format: cell-based; conditions: HL60/TX1000, HL-60/TX1000 MDR cells (Table 2)
Procedure: as §1, §2, §3, §4

[3] = system: seven cancer cell lines from different tissue types; test: Text summary: in vitro activity over the seven cancer cell lines of Table 1; format: cell-based; conditions: range over the seven cell lines of Table 1; read-out: IC50 against seven cancer cell lines
Procedure: (§5) The in vitro activity of the compounds was determined in the following seven human cancer cell lines. MDA435 (human breast cancer), MIP101 (human colon cancer), HL-60 (human myeloid leukemia), U937 (human leukemia), p388 (murine leukemia), DU-145 (human prostate cancer), MES-SA (human uterine sarcoma) were obtained from ATCC (American Type of Culture Collection).
as §1, §2

[4] = system: MDA435 (human breast cancer); test: In vitro anti-cancer activity, MTS growth inhibition assay, MDA-435; format: cell-based; conditions: MDA-435 cells, 72 hours
Procedure: as §5, §1, §2

[5] = system: DU-145 (human prostate cancer); test: In vitro anti-cancer activity, MTS growth inhibition assay, DU-145; format: cell-based; conditions: DU-145 cells, 72 hours, MTS assay (Table 1), read-out: IC50
Procedure: as §5, §1, §2
The protocol described in Examples 9-10 was used to assay inhibition by Compounds (20) (21) (24) and (28) on the growth of cancer cell lines MES-SA (human uterine sarcoma cell line) and DU-145 (human prostate cancer).

[6] = system: HL-60 (human myeloid leukemia); test: In vitro anti-cancer activity, MTS growth inhibition assay, HL-60; format: cell-based; conditions: HL-60 cells, 72 hours
Procedure: as §5, §1, §2

[7] = system: p388 (murine leukemia); test: In vitro anti-cancer activity, MTS growth inhibition assay, p388; format: cell-based; conditions: Mus musculus, p388 cells, 72 hours
Procedure: as §5, §1, §2

[8] = system: U937 (human leukemia); test: In vitro anti-cancer activity, MTS growth inhibition assay, U-937; format: cell-based; conditions: U-937 cells, 72 hours
Procedure: as §5, §1, §2

[9] = Body weight of nude mice bearing MDA435 tumor during treatment; format: in vivo, nude mice (CD-1 nu/nu); conditions: 25 and 50 mg/kg orally
Procedure: The in vivo anti-cancer efficacy of Compound (1) was assessed in tumor bearing mice using a tumor growth inhibition assay. Human breast tumor (MDA-435) cells were implanted by injection of a tumor cell suspension subcutaneously in the flank of a nude mouse. Treatment of the tumor with an experimental compound began after the tumor had been established (volume was approximately 100 mm^3). The animal then began a multiple injection schedule where the compound was administered orally. Tumors were measured two times a week. During the course of this assay, animals were monitored daily for signs of toxicity including body weight loss.
A dosing solution for compound administration was prepared by dissolving 1 gram of Compound (1) in 10 ml of acetone (HPLC grade), and sonicated for 5 minutes using 550 Sonic Dismembrator. 1.2 equivalents of 1 N HCl aqueous solution were added to the acetone solution which was then sonicated for 5 minutes. All solvent was then evaporated from the solution by using Speed Vac Plus SC 250 DDA over night. The dried powder was used for preparing the dosing solution of Compound (1). 1% Methyl cellulose (MC) vehicle was prepared by dissolving 1.0 gram of Methyl cellulose, 400 cps, U.S.P. (Spectrum Laboratory Products, Cat. # ME136) in 100 mL of H2O. This mixture was then stirred for 12 hours at room temperature to produce a clear 1% MC solution. […]

IC50 [1]: 50 nM | IC50 [2]: 20 nM | IC50 [3]: 10 to 50 nM | IC50 [4]: 50 nM | IC50 [5]: 50 nM | IC50 [6]: 10 nM | IC50 [7]: 10 nM | IC50 [8]: 50 nM
SMILES: Cc1cc(NC(=O)C(=O)c2cc(Cc3ccc(C#N)cc3)n3ccccc23)sn1 [Compound (1), 2-(3-(4-cyanobenzyl)-indolizin-1-yl)-N-(3-methyl-isothiazol-5-yl)-2-oxo-acetamide]
body weight change ([9]; FIG. 2): without showing significant body weight loss | body weight change ([9]; FIG. 2, listed as Compound 1): Little or no change in body weight
